Test [1] concerns the target T1, human OX1R (Homo sapiens, UniProt O43613).
T1 construct: expressed in transfected cells; host or cells: CHO (Chinese hamster ovary) cells, line CHOOX1R, co-expressing NFAT-luciferase
T1 sequence (O43613 1-425): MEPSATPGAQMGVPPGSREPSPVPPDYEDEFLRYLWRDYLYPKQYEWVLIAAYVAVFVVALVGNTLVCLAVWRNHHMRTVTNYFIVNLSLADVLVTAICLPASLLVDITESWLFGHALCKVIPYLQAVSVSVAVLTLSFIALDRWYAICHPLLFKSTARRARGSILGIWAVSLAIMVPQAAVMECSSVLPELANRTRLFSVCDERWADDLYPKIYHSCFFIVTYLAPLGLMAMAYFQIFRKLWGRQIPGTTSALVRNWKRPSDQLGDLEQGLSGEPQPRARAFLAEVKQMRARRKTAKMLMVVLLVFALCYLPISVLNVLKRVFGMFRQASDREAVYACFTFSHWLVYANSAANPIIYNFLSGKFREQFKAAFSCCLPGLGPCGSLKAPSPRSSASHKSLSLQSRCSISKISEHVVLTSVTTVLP
Nature of the test: Agonist activity against OX1R: intracellular calcium (Fura-2AM, FDSS7000) in CHOOX1R cells. The format is cell-based. The conditions noted are these: relative to orexin-A as full agonist (100%); for Emax at 0.1 µM / Emax at 1 µM / Emax at 10 µM: read-out: Response (%) OX1R. Put shortly: (§1)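 CHO cells stably expressing human OX1R or OX2R (plus NFAT-luciferase) were loaded with 5 μM Fura-2AM for 60 min, then given compound at 10^−7 to 10^−5 M final (1% DMSO). Calcium change read as 340/380 nm excitation fluorescence ratio; response expressed as % of orexin-A maximal activity at 10, 1.0 and 0.1 μM.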

Test [2] has as its target T2, human OX2R (Homo sapiens, UniProt O43614).
T2 construct: expressed in transfected cells; host or cells: CHO (Chinese hamster ovary) cells, line CHOOX2R, co-expressing NFAT-luciferase
T2 sequence (O43614 1-444): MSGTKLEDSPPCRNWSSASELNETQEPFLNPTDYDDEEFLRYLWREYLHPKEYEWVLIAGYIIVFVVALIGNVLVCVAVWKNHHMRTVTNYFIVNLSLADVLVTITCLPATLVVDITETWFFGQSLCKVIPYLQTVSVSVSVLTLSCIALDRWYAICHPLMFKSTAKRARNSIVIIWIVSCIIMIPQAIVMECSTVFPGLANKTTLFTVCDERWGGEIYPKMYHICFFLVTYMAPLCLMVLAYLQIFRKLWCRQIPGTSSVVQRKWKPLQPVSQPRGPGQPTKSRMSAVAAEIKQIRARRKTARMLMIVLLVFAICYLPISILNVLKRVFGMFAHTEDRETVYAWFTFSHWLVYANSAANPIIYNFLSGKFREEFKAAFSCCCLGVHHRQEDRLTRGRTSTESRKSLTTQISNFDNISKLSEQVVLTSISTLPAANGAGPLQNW
Kind of test: Agonist activity against OX2R: intracellular calcium (Fura-2AM, FDSS7000) in CHOOX2R cells. The test is classed as cell-based. The conditions noted are these: relative to orexin-A as full agonist (100%). Put shortly: as §1
On the technique in general: A change in cytosolic calcium serves as a functional read-out for many receptors and channels.

A value given as a limit tells only on which side of the number the result lay.

Turning to `COc1ccc(-c2cccc(C(=O)N(C)C)c2)cc1S(=O)(=O)Nc1cccc(NC(=O)c2ccccc2C)c1` [Example 16], the “Response (%) OX1R” value in test [1] (0.1 μM test compound) is listed as under 5%; in test [1] (1.0 μM test compound) it was under 5%; in test [1] (10 μM test compound) it was 10%. The results for the “Response (%) OX2R” value in test [2] (0.1 μM test compound), in test [2] (1.0 μM test compound) and in test [2] (10 μM test compound) were under 5%, 19% and 82%, respectively.
Turning to `COc1ccc(C(=O)NCC(C)(C)CN(C)C)cc1S(=O)(=O)Nc1cccc(NC(=O)Nc2cccc(N(C)C)c2)c1` [Example 107], the “Response (%) OX1R” value in test [1] (test compound 0.1 μM), in test [1] (test compound 1.0 μM) and in test [1] (test compound 10 μM) was under 5% in each case. Moreover, the results for the “Response (%) OX2R” value in test [2] (test compound 0.1 μM), in test [2] (test compound 1.0 μM) and in test [2] (test compound 10 μM) were 7%, 9% and 80%, respectively.
Regarding `COc1ccc(-c2cccc(C(=O)N(C)C)c2)cc1S(=O)(=O)Nc1cccc(N2CCCN(c3ccc(N(C)C)cc3)C2=O)c1` [Example 135], the figures for the “Response (%) OX1R” value in test [1] (test compound 0.1 μM), in test [1] (test compound 1.0 μM) and in test [1] (test compound 10 μM) were 8%, 14% and 83%, respectively. In addition, the “Response (%) OX2R” value turned out to be 94% in test [2] (test compound 0.1 μM), 66% in test [2] (test compound 1.0 μM) and 64% in test [2] (test compound 10 μM).
For `CN(C)C(=O)c1cccc(-c2ccc(O)c(S(=O)(=O)Nc3cccc(NC(=O)Nc4cccc(N(C)C)c4)c3)c2)c1` [Example 115], the “Response (%) OX1R” value in test [1] (test compound 0.1 μM), in test [1] (test compound 1.0 μM) and in test [1] (test compound 10 μM) was under 5% each time. Also, the “Response (%) OX2R” value in test [2] (test compound 0.1 μM) was under 5%; in test [2] (test compound 1.0 μM) it was 8%; in test [2] (test compound 10 μM), 62%.
For `COc1ccc(-c2cccc(C(=O)N(C)C)c2)cc1S(=O)(=O)Nc1cccc(NC(=O)Nc2ccccc2[N+](=O)[O-])c1` [Example 46], the figures for the “Response (%) OX1R” value in test [1] (0.1 μM test compound), in test [1] (1.0 μM test compound) and in test [1] (10 μM test compound) were under 5%, under 5% and 8%, respectively. Also, the “Response (%) OX2R” value is reported as 74% in test [2] (0.1 μM test compound), 101% in test [2] (1.0 μM test compound) and 115% in test [2] (10 μM test compound).
As to `COc1ccc(-c2cccc(C(=O)N(C)C)c2)cc1S(=O)(=O)Nc1cccc(NCC(=O)NCc2cccc(C)c2)c1` [Example 92, 4′-methoxy-N,N-dimethyl-3′-(N-(3-((2-((3-methylbenzyl)amino)-2-oxoethyl)amino)phenyl)sulfamoyl)-[1,1′-biphenyl]-3-carboxamide], in test [1] (test compound 0.1 μM), the Emax at 0.1 µM is under 5%. In test [1] (test compound 1.0 μM), the Emax at 1 µM came to 6%. For the same compound, the Emax at 10 µM in test [1] (test compound 10 μM) was 30%. In addition, the “Response (%) OX2R” value in test [2] (test compound 0.1 μM) amounted to 35%; in test [2] (test compound 1.0 μM), 95%; in test [2] (test compound 10 μM), 95%.
`COc1ccc(-c2cccc(C(=O)N(C)C)c2)cc1S(=O)(=O)Nc1cccc(NC(=S)Nc2cccc(C)c2)c1` [Example 76]: the “Response (%) OX1R” value in test [1] (0.1 μM test compound) is reported as under 5%; in test [1] (1.0 μM test compound), 20%; in test [1] (10 μM test compound), 55%. In addition, the “Response (%) OX2R” value is 93% in test [2] (0.1 μM test compound), 90% in test [2] (1.0 μM test compound) and 89% in test [2] (10 μM test compound).
As to `COc1ccc(-c2cccc(C(=O)N(C)C)c2)cc1S(=O)(=O)Nc1cccc(NC(=O)NCc2ccccc2)c1` [Example 66], the results for the “Response (%) OX1R” value in test [1] (0.1 μM test compound), in test [1] (1.0 μM test compound) and in test [1] (10 μM test compound) were 6%, 6% and 7%, respectively. In addition, the “Response (%) OX2R” value is 79% in test [2] (0.1 μM test compound), 70% in test [2] (1.0 μM test compound) and 60% in test [2] (10 μM test compound).
With `COc1ccc(-c2cccc(C(=O)N(C)C)c2)cc1S(=O)(=O)Nc1cccc(N(C)C)c1` [Example 96, 3′-(N-(3-(dimethylamino)phenyl)sulfamoyl)-4′-methoxy-N,N-dimethyl-[1,1′-biphenyl]-3-carboxamide], the Emax at 0.1 µM in test [1] (test compound 0.1 μM) was under 5%. Further, in test [1] (test compound 1.0 μM), the Emax at 1 µM is under 5%. The Emax at 10 µM in test [1] (test compound 10 μM) is under 5%. Further, the results for the “Response (%) OX2R” value in test [2] (test compound 0.1 μM), in test [2] (test compound 1.0 μM) and in test [2] (test compound 10 μM) were under 5%, under 5% and 67%, respectively.
For the compound `CCN(Cc1cccnc1)C(=O)c1ccc(OC)c(S(=O)(=O)Nc2cccc(NC(=O)Nc3ccc(N(C)C)cc3)c2)c1` [Example 111], the “Response (%) OX1R” value in test [1] (test compound 0.1 μM), in test [1] (test compound 1.0 μM) and in test [1] (test compound 10 μM) was under 5% each time. In addition, the entries for the “Response (%) OX2R” value in test [2] (test compound 0.1 μM), in test [2] (test compound 1.0 μM) and in test [2] (test compound 10 μM) were 32%, 88% and 100%, respectively.
Regarding `COc1ccc(-c2cccc(C(=O)N(C)C)c2)cc1S(=O)(=O)Nc1cccc(NS(=O)(=O)c2cccc(F)c2)c1` [Example 88], the “Response (%) OX1R” value is reported as 7% in test [1] (test compound 0.1 μM), 7% in test [1] (test compound 1.0 μM) and 9% in test [1] (test compound 10 μM). The “Response (%) OX2R” value in test [2] (test compound 0.1 μM) is recorded as 15%; in test [2] (test compound 1.0 μM), 13%; in test [2] (test compound 10 μM), 13%.
For `COc1ccc(-c2cccc(C(=O)N(C)C)c2)cc1S(=O)(=O)Nc1cccc(NC(=O)c2cccc(Br)c2)c1` [Example 3], the “Response (%) OX1R” value in test [1] (0.1 μM test compound) is 14%; in test [1] (1.0 μM test compound) it was 9%; in test [1] (10 μM test compound) it was 12%. The “Response (%) OX2R” value in test [2] (0.1 μM test compound) is under 5%; in test [2] (1.0 μM test compound) it was 6%; in test [2] (10 μM test compound), 23%.
Consider `CCN(Cc1cccnc1)C(=O)c1ccc(OC)c(S(=O)(=O)Nc2cccc(NC(=O)Nc3cccc(N(C)C)c3)c2)c1` [Example 102], for which the “Response (%) OX1R” value in test [1] (test compound 0.1 μM), in test [1] (test compound 1.0 μM) and in test [1] (test compound 10 μM) was under 5% in each case. For the same compound, the “Response (%) OX2R” value in test [2] (test compound 0.1 μM) is reported as 61%; in test [2] (test compound 1.0 μM) it was 97%; in test [2] (test compound 10 μM), 100%.
Consider `COc1ccc(-c2cccc(C(=O)N(C)C)c2)cc1S(=O)(=O)Nc1cccc(NS(C)(=O)=O)c1` [Example 89], for which the “Response (%) OX1R” value in test [1] (test compound 0.1 μM), in test [1] (test compound 1.0 μM) and in test [1] (test compound 10 μM) was under 5% throughout. Further, the “Response (%) OX2R” value in test [2] (test compound 0.1 μM) is 7%; in test [2] (test compound 1.0 μM), 8%; in test [2] (test compound 10 μM), 31%.
On to `COc1ccc(-c2cccc(C(=O)N(C)C)c2)cc1S(=O)(=O)Nc1cccc(NC(=O)Nc2cccc(N)c2)c1` [Example 63], for which the “Response (%) OX1R” value is 9% in test [1] (0.1 μM test compound), 9% in test [1] (1.0 μM test compound) and 7% in test [1] (10 μM test compound). In addition, the entries for the “Response (%) OX2R” value in test [2] (0.1 μM test compound), in test [2] (1.0 μM test compound) and in test [2] (10 μM test compound) were 8%, 55% and 66%, respectively.
Regarding `COc1ccc(-c2cccc(C(=O)N(C)C)c2)cc1S(=O)(=O)Nc1cccc(NC(=O)Nc2cccc(NC(=NC(=O)OC(C)(C)C)NC(=O)OC(C)(C)C)c2)c1` [Example 64], the “Response (%) OX1R” value in test [1] (0.1 μM test compound), in test [1] (1.0 μM test compound) and in test [1] (10 μM test compound) was under 5% throughout. Moreover, the “Response (%) OX2R” value in test [2] (0.1 μM test compound), in test [2] (1.0 μM test compound) and in test [2] (10 μM test compound) was under 5% each time.
With `COc1ccc(-c2cccc(C(=O)N(C)C)c2)cc1S(=O)(=O)Nc1cccc(NC(=O)c2ccccc2Br)c1` [Example 2], the “Response (%) OX1R” value in test [1] (0.1 μM test compound) worked out at 13%; in test [1] (1.0 μM test compound), 11%; in test [1] (10 μM test compound), 32%. The “Response (%) OX2R” value in test [2] (0.1 μM test compound) is given as under 5%; in test [2] (1.0 μM test compound), 26%; in test [2] (10 μM test compound), 74%.
Regarding `COc1ccc(-c2cccc(C(=O)N(C)C)c2)cc1S(=O)(=O)Nc1cccc(/N=N/c2ccc(N(C)C)cc2CO)c1` [Example 97, (E)-3′-(N-(3-((4-(dimethylamino)-2-(hydroxymethyl)phenyl)diazenyl)phenyl)sulfamoyl)-4′-methoxy-N,N-dimethyl-[1,1-biphenyl]-3-carboxamide], the Emax at 0.1 µM in test [1] (test compound 0.1 μM) was under 5%. For the same compound, the Emax at 1 µM in test [1] (test compound 1.0 μM) is under 5%. The Emax at 10 µM in test [1] (test compound 10 μM) was 11%. Also, the “Response (%) OX2R” value is 25% in test [2] (test compound 0.1 μM), 84% in test [2] (test compound 1.0 μM) and 108% in test [2] (test compound 10 μM).

Source of the values: US10351522B2, “Sulfonamide derivative and pharmaceutically acceptable acid addition salt thereof” (UNIVERSITY OF TSUKUBA, priority 2015, dated 2019).
